# Literature values in patent publication US7638299B2, “Biosynthetic polypeptides utilizing non-naturally encoded amino acids” (Ambrx, Inc., priority 2004, dated 2009).
# Like-named read-outs stand apart in the source and are kept apart here. No end group written: not given here.
# Key:
# [1] = administered subcutaneously
# [2] = stored at 4° C. (Mojsov)
# [3] = U.S. Pat. No. 5,118,666
# NIDDM patients = conditions: 4 ng/kg/min intravenously, continuously for one week
# [4] = humans
# [5] = Kreymann et al., 1987
# [6] = in vitro studies and in animals
# GLP-1 receptor = target: T1, GLP-1 receptor (Rattus norvegicus, UniProt P32301); conditions: rats
# T1 construct: host or cells: live rats (endogenous receptor)
# T1 sequence (P32301 22-463): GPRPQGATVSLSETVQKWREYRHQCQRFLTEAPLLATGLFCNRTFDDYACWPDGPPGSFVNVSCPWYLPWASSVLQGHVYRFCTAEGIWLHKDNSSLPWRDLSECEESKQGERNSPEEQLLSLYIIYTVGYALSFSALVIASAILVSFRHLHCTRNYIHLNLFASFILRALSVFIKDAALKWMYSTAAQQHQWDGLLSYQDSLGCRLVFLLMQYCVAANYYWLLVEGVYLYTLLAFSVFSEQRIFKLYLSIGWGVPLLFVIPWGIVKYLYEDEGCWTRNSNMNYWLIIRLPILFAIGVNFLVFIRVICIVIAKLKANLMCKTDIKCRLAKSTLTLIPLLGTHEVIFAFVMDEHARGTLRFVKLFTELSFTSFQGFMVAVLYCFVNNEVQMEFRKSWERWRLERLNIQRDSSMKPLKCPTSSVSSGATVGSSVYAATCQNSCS
# [7] = intraventricular administration
substance,measurement,setting,value
GLP-1(7-36) amide: SEQ ID NO: 1; His-Ala-Glu-Gly-...-Lys-Gly-Arg-X wherein X is NH2 (HAEGTFTSDVSSYLEGQAAKEFIAWLVKGR-NH2; listed as Homo sapiens),time action,[1],about 50 minutes
GLP-1(7-37): SEQ ID NO: 2; His-Ala-Glu-Gly-...-Lys-Gly-Arg-X wherein X is Gly,appearance of by-products on storage,[2],have been found as early as eleven months after sample preparation
same,biological half-life,[3],3 to 5 minutes
same,serum half-life,[3],3 to 5 min
"GLP-1: product of the proglucagon gene, gut incretin hormone",glycaemic control,NIDDM patients,dramatically improve glycaemic control
same,side effects,NIDDM patients,without significant side effects
same,plasma half-life,[4],2 min
same,half-life of circulating GLP-1,[5],about 4 minutes
same,food intake,"food intake in rats; acute, peripheral administration",does not inhibit food intake acutely
same,food intake,food intake in rats; [7],profoundly inhibits food intake
"N-terminally extended GLP-1 (PG 72-107)amide: N-terminally extended GLP-1, proglucagon 72-107 amide (QDFVQWLMNTKRNRNNIAKRHDEFERHAEGTFTSDV-NH2; UniProt P01275 72-107, looked up, fragment)",food intake,food intake in rats; [7],inactive
PYY: thirty six amino acid long peptide secreted by endocrine cells of the distal gastrointestinal tract,appetite and food intake,"lean and obese subjects; administered intravenously, lean and obese subjects",suppresses appetite and food intake
same,oral activity,"lean and obese subjects; oral, low absorption and rapid degradation in the gastrointestinal tract",negligible
enfuvirtide,toxicity,[6],non-toxic
same,inhibition of HIV-1 mediated CD-4+ cell-cell fusion (syncytial formation) and infection of CD-4+ cells by cell-free virus,HIV-1,potent inhibitor
exendin 9-39,incretin effect elicited by oral glucose,GLP-1 receptor,dramatically reduces the incretin effect
same,antagonism of the GLP-1 effect on food intake,food intake in rats; appropriate doses of the GLP-1 antagonist,abolish the effects of GLP-1
